Values after ≈ are worked out from the molar mass of the structure shown.
Experiments:
[1] = Tmax in Sprague-Dawley rat at 5 mg/kg, po; assay type: ADME, organism-based; conditions: in vivo
[2] = Oral bioavailability in Sprague-Dawley rat at 5 mg/kg; assay type: ADME, organism-based; conditions: in vivo
[3] = AUC (0 to infinity) in Sprague-Dawley rat at 5 mg/kg, po; assay type: ADME, organism-based; design: time infinity, dose 5 mg/kg, route po; conditions: in vivo
[4] = Thermodynamic solubility of the compound at pH 7; assay type: physicochemical; conditions: buffer, read-out: Therm_solubility
[5] = Cmax in Sprague-Dawley rat at 5 mg/kg, po; assay type: ADME, organism-based; design: dose 5 mg/kg, route po; conditions: in vivo
[6] = Half life in Sprague-Dawley rat at 5 mg/kg, po or 1.25 mg/kg, iv; assay type: ADME, organism-based; conditions: in vivo
[7] = Volume of distribution at steady state in Mongrel dog at 2.5 mg/kg, po or 1 mg/kg, iv; assay type: ADME, organism-based, Canis lupus familiaris; conditions: in vivo
[8] = Clearance in Sprague-Dawley rat at 5 mg/kg, po or 1.25 mg/kg, iv relative to liver blood flow; assay type: ADME, organism-based; conditions: in vivo
[9] = Metabolic stability in human liver microsomes assessed as intrinsic clearance; assay type: ADME, Microsome; conditions: read-out: CLH
[10] = Cmax in Mongrel dog at 2.5 mg/kg, po; assay type: ADME, organism-based, Canis lupus familiaris; design: dose 2.5 mg/kg, route po; conditions: in vivo
[11] = Oral bioavailability in Mongrel dog at 2.5 mg/kg; assay type: ADME, organism-based, Canis lupus familiaris; conditions: in vivo
[12] = Half life in Mongrel dog at 2.5 mg/kg, po or 1 mg/kg, iv; assay type: ADME, organism-based, Canis lupus familiaris; conditions: in vivo
[13] = Clearance in Mongrel dog at 2.5 mg/kg, po or 1 mg/kg, iv relative to liver blood flow; assay type: ADME, organism-based, Canis lupus familiaris; conditions: in vivo
[14] = Tmax in Mongrel dog at 2.5 mg/kg, po; assay type: ADME, organism-based, Canis lupus familiaris; conditions: in vivo
[15] = Volume of distribution at steady state in Sprague-Dawley rat at 5 mg/kg, po or 1.25 mg/kg, iv; assay type: ADME, organism-based; conditions: in vivo
[16] = AUC (0 to infinity) in Mongrel dog at 2.5 mg/kg, po; assay type: ADME, organism-based, Canis lupus familiaris; design: time infinity, dose 2.5 mg/kg, route po; conditions: in vivo
[17] = Ratio of AUC (0 to 24 hrs) in liver to plasma in Sprague-Dawley rat at 5 mg/kg, po or 1.25 mg/kg, iv; assay type: ADME, organism-based; conditions: read-out: Ratio AUC
[18] = Cmax in CD1 mouse at 10 mg/kg, po; assay type: ADME, organism-based; design: dose 10 mg/kg, route po; conditions: in vivo
[19] = Half life in CD1 mouse at 10 mg/kg, po or 2.5 mg/kg, iv; assay type: ADME, organism-based; conditions: in vivo
[20] = Oral bioavailability in CD1 mouse at 10 mg/kg; assay type: ADME, organism-based; conditions: in vivo
[21] = Volume of distribution at steady state in CD1 mouse at 10 mg/kg, po or 2.5 mg/kg, iv; assay type: ADME, organism-based; conditions: in vivo
[22] = Clearance in CD1 mouse at 10 mg/kg, po or 2.5 mg/kg, iv relative to liver blood flow; assay type: ADME, organism-based; conditions: in vivo
[23] = AUC (0 to infinity) in CD1 mouse at 10 mg/kg, po; assay type: ADME, organism-based; design: time infinity, dose 10 mg/kg, route po; conditions: in vivo
[24] = molecular target: Core antigen (Hepatitis B virus) (UniProt Q03732); test: Modulation of capsid assembly in HBV infected in human HepG2.2.15 cells assessed as fold shift in inhibition of viral DNA replication in presence of 40% normal human serum incubated for 3 days followed by replacement with fresh medium containing compound and measured after 3 days by QuantiGene assay; assay type: cell-based; conditions: time 6.0 day
[25] = Tmax in CD1 mouse at 10 mg/kg, po; assay type: ADME, organism-based; conditions: in vivo
[26] = system: Cytochrome P450; test: Induction of CYP (unknown origin); assay type: ADME, protein assay; conditions: human
[27] = system: Cytochrome P450; test: Inhibition of CYP (unknown origin); assay type: ADME, protein assay; conditions: human
[28] = Half life in CD1 mouse at 2 mg/kg, iv; assay type: ADME, organism-based; conditions: in vivo
[29] = Volume of distribution at steady state in Sprague-Dawley rat at 0.6 mg/kg, iv; assay type: ADME, organism-based; conditions: in vivo, read-out: Vdss
[30] = Half life in Sprague-Dawley rat at 0.6 mg/kg, iv; assay type: ADME, organism-based; conditions: in vivo
[31] = Clearance in CD1 mouse at 2 mg/kg, iv; assay type: ADME, organism-based; conditions: in vivo
[32] = Volume of distribution at steady state in CD1 mouse at 2 mg/kg, iv; assay type: ADME, organism-based; conditions: in vivo, read-out: Vdss
[33] = Clearance in Sprague-Dawley rat at 0.6 mg/kg, iv; assay type: ADME, organism-based; conditions: in vivo
[34] = Solubility of the compound; assay type: physicochemical

Sequence of Core antigen (Hepatitis B virus) (Q03732 as listed by the source): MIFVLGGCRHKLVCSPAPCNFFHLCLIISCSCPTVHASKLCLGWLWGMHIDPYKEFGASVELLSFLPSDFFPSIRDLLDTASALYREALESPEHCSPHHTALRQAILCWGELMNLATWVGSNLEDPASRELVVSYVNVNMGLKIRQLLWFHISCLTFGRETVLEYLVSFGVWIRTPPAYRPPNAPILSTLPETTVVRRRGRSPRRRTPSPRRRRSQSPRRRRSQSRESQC

C[C@@H]1Cc2nn3c(c2CN1C(=O)Nc1ccc(F)c(C#N)c1)C(=O)N(C)O[C@@H](COCC(F)F)C3
Tmax ([1]; Sprague-Dawley, read-out: Tmax): 1 h | bioavailability [2]: 71% | AUC(0-inf) [3]: 3840 ng·h/mL | solubility thermodynamic [4]: 22 µM (≈ 10.8 µg/mL) | Cmax ([5]; Sprague-Dawley, read-out: Cmax): 533 ng/mL | half-life ([6]; Sprague-Dawley): 1.8 h | Vdss [7]: 1.2 L/kg | CLH [8]: 20% | CLint scaled [9]: < 5 mL/min/kg | Cmax [10]: 1170 ng/mL | bioavailability [11]: 70% | half-life [12]: 5.6 h | CLH [13]: 9% | Tmax [14]: 0.75 h | Vdss [15]: 2 L/kg | AUC(0-inf) [16]: 10600 ng·h/mL | Kp [17]: 3.8

CN1OC(CO)Cn2nc3c(c2C1=O)CN(C(=O)Nc1ccc(F)c(Cl)c1)CC3 (racemic)
solubility thermodynamic [4]: 183 µM (≈ 77.6 µg/mL) | CLint scaled [9]: 8 mL/min/kg

CCON(C)C(=O)c1n[nH]c2c1CN(C(=O)Nc1cccc(Cl)c1)CC2
CLint scaled [9]: 55 mL/min/kg

CCN(C)C(=O)c1n[nH]c2c1CN(C(=O)Nc1cccc(Cl)c1)CC2
CLint scaled [9]: 87 mL/min/kg

CON(C)C(=O)c1n[nH]c2c1CN(C(=O)Nc1cccc(Cl)c1)CC2
CLint scaled [9]: 33 mL/min/kg

C[C@@H]1Cc2nn3c(c2CN1C(=O)Nc1ccc(F)c(C#N)c1)C(=O)N(C)O[C@@H](C(=O)N(C)CC(F)F)C3
solubility thermodynamic [4]: 45 µM (≈ 23.4 µg/mL) | CLint scaled [9]: 14 mL/min/kg

CN(OC1COC1)C(=O)c1n[nH]c2c1CN(C(=O)Nc1cccc(Cl)c1)CC2
solubility thermodynamic [4]: 183 µM (≈ 74.3 µg/mL) | CLint scaled [9]: 8 mL/min/kg

C[C@@H]1Cc2nn3c(c2CN1C(=O)Nc1ccc(F)c(Cl)c1)C(=O)N(C)O[C@@H](CO)C3
solubility thermodynamic [4]: 183 µM (≈ 80.1 µg/mL) | CLint scaled [9]: 11 mL/min/kg

CCOC(=O)c1n[nH]c2c1CN(C(=O)Nc1cccc(Cl)c1)CC2
CLint scaled [9]: 171 mL/min/kg

C[C@@H]1Cc2nn3c(c2CN1C(=O)Nc1ccc(F)c(Cl)c1)C(=O)N(C)O[C@@H](CN(C)C)C3
solubility thermodynamic [4]: 176 µM (≈ 81.8 µg/mL) | CLint scaled [9]: 19 mL/min/kg

C[C@@H]1Cc2nn3c(c2CN1C(=O)Nc1ccc(F)c(C#N)c1)C(=O)N(C)OCC3
solubility thermodynamic [4]: 80 µM (≈ 31.9 µg/mL) | CLint scaled [9]: < 5 mL/min/kg

C[C@@H]1Cc2nn3c(c2CN1C(=O)Nc1ccc(F)c(C#N)c1)C(=O)N(C)O[C@@H](CF)C3
Tmax ([1]; po, 5 mg/kg): 0.5 h | bioavailability [2]: 7.4% | AUC(0-inf) [3]: 71.8 ng·h/mL | solubility thermodynamic [4]: 63 µM (≈ 27.1 µg/mL) | Cmax [5]: 20.1 ng/mL | t1/2 ([6]; po, 5 mg/kg): 0.4 h | Cmax [18]: 1420 ng/mL | half-life [19]: 7.9 h | Vdss [7]: 1.5 L/kg | CLH [8]: 93% | bioavailability [20]: 66% | CLint scaled [9]: < 5 mL/min/kg | Cmax [10]: 1310 ng/mL | bioavailability [11]: 79% | Vdss [21]: 6.3 L/kg | CLH [22]: 21% | half-life [12]: 5.4 h | AUC(0-inf) [23]: 4340 ng·h/mL | fold change (FC) [24]: 2 | Tmax [25]: 0.4 h | CLH [13]: 11% | Tmax [14]: 1 h | Activity [26]: Not Active | Vdss [15]: 2.5 L/kg | AUC(0-inf) [16]: 9550 ng·h/mL | inhibition (INH) [27]: Not Active

CCCC(=O)c1n[nH]c2c1CN(C(=O)Nc1cccc(Cl)c1)CC2
CLint scaled [9]: 214 mL/min/kg

O=C(Nc1cccc(Cl)c1)N1CCc2[nH]nc(-c3ccccc3)c2C1
CLint scaled [9]: 192 mL/min/kg

Cc1cc(NC(=O)N2Cc3c(nn4c3C(=O)N(C)O[C@@H](CO)C4)C[C@H]2C)ccc1F
half-life [28]: 1.5 h | solubility thermodynamic [4]: > 200 µM | Vd [29]: 2.1 L/kg | half-life [30]: 0.7 h | CLint scaled [9]: < 5 mL/min/kg | clearance [31]: 39 mL/min/kg | Vd [32]: 2.2 L/kg | clearance [33]: 47 mL/min/kg

O=C(Nc1cccc(Cl)c1)N1CCc2[nH]nc(C(=O)N3CCCCO3)c2C1
CLint scaled [9]: 38 mL/min/kg

CN1O[C@H](CO)Cn2nc3c(c2C1=O)CN(C(=O)Nc1ccc(F)c(Cl)c1)CC3
CLint scaled [9]: 9 mL/min/kg

CC(C)ON(C)C(=O)c1n[nH]c2c1CN(C(=O)Nc1cccc(Cl)c1)CC2
CLint scaled [9]: 65 mL/min/kg

C[C@@H]1Cc2nn3c(c2CN1C(=O)Nc1ccc(F)c(C#N)c1)C(=O)N(C)O[C@@H](CO)C3
half-life [28]: 1.2 h | solubility thermodynamic [4]: > 200 µM | Vd [29]: 1.9 L/kg | half-life [30]: 0.5 h | CLint scaled [9]: < 5 mL/min/kg | clearance [31]: 96 mL/min/kg | Vd [32]: 4 L/kg | clearance [33]: 66 mL/min/kg

CN(OCCO)C(=O)c1n[nH]c2c1CN(C(=O)Nc1cccc(Cl)c1)CC2
solubility thermodynamic [4]: 161 µM (≈ 63.4 µg/mL) | CLint scaled [9]: 31 mL/min/kg

CN1O[C@@H](CO)Cn2nc3c(c2C1=O)CN(C(=O)Nc1ccc(F)c(Cl)c1)CC3
CLint scaled [9]: 7 mL/min/kg

C[C@H]1Cc2[nH]nc(-c3cscn3)c2CN1C(=O)Nc1ccc(F)c(C#N)c1
solubility [34]: 45 µM (≈ 17.2 µg/mL)

C[C@@H]1Cc2nn3c(c2CN1C(=O)Nc1ccc(F)c(C(F)(F)F)c1)C(=O)N(C)O[C@@H](CO)C3
half-life [28]: 1.6 h | solubility thermodynamic [4]: 172 µM (≈ 81.1 µg/mL) | Vd [29]: 2.3 L/kg | half-life [30]: 1.4 h | CLint scaled [9]: 7.2 mL/min/kg | clearance [31]: 58 mL/min/kg | Vd [32]: 5.3 L/kg | clearance [33]: 24 mL/min/kg
